What follows are compounds tested against T1, hGPR120 (Homo sapiens, UniProt Q5NUL3) (assay: Measurement of Activity of GPR120 Agonist (Cell-Based Assay), Calcium 5 dye fluorescence). Conditions: CHO-K1 cells expressing Ga16 and hGPR120.
T1 construct: expressed in transfected cells; host or cells: CHO-K1
T1 sequence (Q5NUL3 1-361): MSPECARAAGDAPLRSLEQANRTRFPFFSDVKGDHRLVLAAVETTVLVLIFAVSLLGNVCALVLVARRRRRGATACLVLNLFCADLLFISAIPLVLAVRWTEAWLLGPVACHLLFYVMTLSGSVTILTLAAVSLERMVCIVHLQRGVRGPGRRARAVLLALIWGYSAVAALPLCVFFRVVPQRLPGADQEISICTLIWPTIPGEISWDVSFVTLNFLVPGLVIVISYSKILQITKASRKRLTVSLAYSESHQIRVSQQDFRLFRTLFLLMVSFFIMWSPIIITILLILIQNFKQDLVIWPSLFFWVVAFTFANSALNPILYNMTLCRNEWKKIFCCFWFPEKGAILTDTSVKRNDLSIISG
Procedure, shortened: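 After an 18 h incubation at 37 °C, the transfected CHO-K1 cells (Gα16, hGPR120) received Calcium 5 dye for 1 h; compound dilutions in 0.5% DMSO were then injected and emission at 525 nm recorded, with values given as % of the vehicle response.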

EC50 | Structure (SMILES)
< 200 nM | CN(CCCC(=O)O)c1c(F)cc(-c2cccc(OCC3CC3)n2)cc1F [Example 493, 4-[4-[6-(cyclopropylmethoxy)-2-pyridyl]-2,6-difluoro-N-methyl-anilino]butanoic acid]
< 200 nM | CCCOc1cncc(-c2cc(F)c(N3CCC(CC(=O)O)C3)c(F)c2)n1 (stereo not drawn) [Example 495, 2-{1-[2,6-difluoro-4-(6-propoxy-pyrazin-2-yl)phenyl]pyrrolidin-3-yl}acetic acid]
< 200 nM | CCCOc1ccnc(-c2cc(F)c(N3CCC(CC(=O)O)C3)c(F)c2)n1 (stereo not drawn) [Example 499, 2-{1-[2,6-difluoro-4-(4-propoxy-pyrimidin-2-yl)phenyl]pyrrolidin-3-yl}acetic acid]
< 200 nM | CC(C)Oc1ccnc(-c2cc(F)c(N3CCC(CC(=O)O)C3)c(F)c2)n1 (stereo not drawn) [Example 500, 2-{1-[2,6-difluoro-4-(4-isopropoxy-pyrimidin-2-yl)phenyl]pyrrolidin-3-yl}acetic acid]
< 200 nM | CCOc1ccnc(-c2cc(F)c(N3CCC(CC(=O)O)C3)c(F)c2)n1 (stereo not drawn) [Example 501, 2-{1-[2,6-difluoro-4-(4-ethoxy-pyrimidin-2-yl)phenyl]pyrrolidin-3-yl}acetic acid]
200 to 2000 nM | CC(C)CNc1cncc(-c2cc(F)c(N3CCC(CC(=O)O)C3)c(F)c2)n1 (stereo not drawn) [Example 503, 2-{1-[2,6-difluoro-4-(6-isobutylamino-pyrazin-2-yl)phenyl]pyrrolidin-3-yl}acetic acid]
200 to 2000 nM | O=C(O)CC1CCN(c2c(F)cc(-c3cncc(NC4CCCC4)n3)cc2F)C1 (stereo not drawn) [Example 504, 2-{1-[2,6-difluoro-4-(6-cyclopentylamino-pyrazin-2-yl)phenyl]pyrrolidin-3-yl}acetic acid]
200 to 2000 nM | CC(C)Nc1cncc(-c2cc(F)c(N3CCC(CC(=O)O)C3)c(F)c2)n1 (stereo not drawn) [Example 505, 2-{1-[2,6-difluoro-4-(6-isopropylamino-pyrazin-2-yl)phenyl]pyrrolidin-3-yl}acetic acid]
200 to 2000 nM | CCN(CC)c1cncc(-c2cc(F)c(N3CCC(CC(=O)O)C3)c(F)c2)n1 (stereo not drawn) [Example 506, 2-{1-[2,6-difluoro-4-(6-diethylamino-pyrazin-2-yl)phenyl]pyrrolidin-3-yl}acetic acid]
200 to 2000 nM | O=C(O)CC1CCN(c2c(F)cc(-c3nccc(Oc4ccc(Cl)cc4)n3)cc2F)C1 (stereo not drawn) [Example 509, 2-[1-[4-[4-(4-chlorophenoxy)pyrimidin-2-yl]-2,6-difluoro-phenyl]-pyrrolidin-3-yl]acetic acid]
< 200 nM | O=C(O)CC1CCN(c2c(F)cc(-c3nccc(Oc4ccccc4)n3)cc2F)CC1 [Example 510, 2-[1-[4-[4-phenoxy-pyrimidin-2-yl]-2,6-difluoro-phenyl]-4-piperidyl]acetic acid]
< 200 nM | O=C(O)CC1CCN(c2c(F)cc(-c3nccc(Oc4ccc(F)cc4)n3)cc2F)CC1 [Example 511, 2-[1-[4-[4-(4-fluorophenoxy)pyrimidin-2-yl]-2,6-difluoro-phenyl]-4-piperidyl]acetic acid]
200 to 2000 nM | O=C(O)CC1CCN(c2c(F)cc(-c3nccc(Oc4cccnc4)n3)cc2F)CC1 [Example 512]
< 200 nM | O=C(O)CC1CCN(c2c(F)cc(-c3cncc(Oc4ccc(F)cc4)n3)cc2F)CC1 [Example 513, 2-[1-[2,6-difluoro-4-[6-(4-fluorophenoxy)pyrazin-2-yl]phenyl]-4-piperidyl]acetic acid]
200 to 2000 nM | COc1ccc(Oc2ccnc(-c3cc(F)c(N4CCC(CC(=O)O)CC4)c(F)c3)n2)cc1 [Example 514, 2-[1-[4-[4-(4-methoxyphenoxy)pyrimidin-2-yl]-2,6-difluoro-phenyl]-4-piperidyl]acetic acid]
200 to 2000 nM | Cc1cc(Oc2ccc(F)cc2)nc(-c2cc(F)c(N3CCC(CC(=O)O)CC3)c(F)c2)n1 [Example 515, 2-[1-[2,6-difluoro-4-[4-(4-fluorophenoxy)-6-methyl-pyrimidin-2-yl]phenyl]-4-piperidyl]acetic acid]
< 200 nM | Cc1ccc(Oc2ccnc(-c3cc(F)c(N4CCC(CC(=O)O)CC4)c(F)c3)n2)cc1 [Example 516, 2-[1-[4-[4-(p-tolyloxy)pyrimidin-2-yl]-2,6-difluoro-phenyl]-4-piperidyl]acetic acid]
< 200 nM | O=C(O)CC1CCN(c2c(F)cc(-c3nccc(Oc4ccc(F)c(F)c4)n3)cc2F)CC1 [Example 517, 2-[1-[4-[4-(3,4-difluorophenoxy)pyrimidin-2-yl]-2,6-difluoro-phenyl]-4-piperidyl]acetic acid]
< 200 nM | Cc1cc2cc(Cl)cc(-c3cc(F)c(OCCCC(=O)O)c(F)c3)c2o1 [Example 518, 4-[4-(5-chloro-2-methyl-benzofuran-7-yl)-2,6-difluoro-phenoxy]-butyric acid]
200 to 2000 nM | Cc1cc2cc(Cl)cc(-c3cc(F)c(C(C)CCCC(=O)O)c(F)c3)c2o1 (stereo not drawn) [Example 519, 5-[4-(5-chloro-2-methyl-benzofuran-7-yl)-2,6-difluoro-phenyl]-hexanoic acid]
200 to 2000 nM | CN(CCCC(=O)O)c1c(F)cc(-c2cccc(OCC3CCC3)c2)cc1F [Example 520, 4-[(3′-cyclobutylmethoxy-3,5-difluoro-biphenyl-4-yl)-methyl-amino]-butyric acid]
< 200 nM | O=C(O)CCCOc1c(F)cc(-c2cccc(OCC3CCC3)c2)cc1F [Example 521, 4-(3′-cyclobutylmethoxy-3,5-difluoro-biphenyl-4-yloxy)-butyric acid]
< 200 nM | CN(CCCC(=O)O)c1c(F)cc(-c2cccc(OCC3CCC3)n2)cc1F [Example 522, 4-{[4-(6-cyclobutylmethoxy-pyridin-2-yl)-2,6-difluoro-phenyl]-methyl-amino}-butyric acid]
< 200 nM | O=C(O)CCCOc1c(F)cc(-c2cccc(OCC3CCC3)n2)cc1F [Example 523, 4-[4-(6-cyclobutylmethoxy-pyridin-2-yl)-2,6-difluoro-phenoxy]-butyric acid]
< 200 nM | CN(CCCC(=O)O)c1c(F)cc(-c2cccc(OCC3CC3)c2)cc1F [Example 524, 4-[(3′-cyclopropylmethoxy-3,5-difluoro-biphenyl-4-yl)-methyl-amino]-butyric acid]
< 200 nM | CN(CCCC(=O)O)c1c(F)cc(-c2cccc(OC3CCCC3)c2)cc1F [Example 525, 4-[(3′-cyclopentyloxy-3,5-difluoro-biphenyl-4-yl)-methyl-amino]-butyric acid]
< 200 nM | COc1ccc(-c2cc(F)c(OCCCC(=O)O)c(F)c2)cc1OCC1CC1 [Example 526, 4-(3′-cyclopropylmethoxy-3,5-difluoro-4′-methoxy-biphenyl-4-yloxy)-butyric acid]
< 200 nM | O=C(O)CCCOc1c(F)cc(-c2ccc(F)c(OCC3CC3)c2)cc1F [Example 527, 4-(3′-cyclopropylmethoxy-3,5,4′-trifluoro-biphenyl-4-yloxy)-butyric acid]
200 to 2000 nM | Cc1ccc(OCC2CCC2)cc1-c1cc(F)c(N(C)CCCC(=O)O)c(F)c1 [Example 529, 4-[(5′-cyclobutylmethoxy-3,5-difluoro-2′-methyl-biphenyl-4-yl)-methyl-amino]-butyric acid]
< 200 nM | Cc1ccc(OCC2CCC2)cc1-c1cc(F)c(OCCCC(=O)O)c(F)c1 [Example 530, 4-(5′-cyclobutylmethoxy-3,5-difluoro-2′-methyl-biphenyl-4-yloxy)-butyric acid]

Structure (SMILES) | EC50
CN(CCCC(=O)O)c1c(F)cc(-n2ncc3ccc(OC4CCC4)cc32)cc1F [Example 492, 4-[4-[6-(cyclobutoxy)indazol-1-yl]-2,6-difluoro-N-methyl-anilino]butanoic acid] | < 200 nM
O=C(O)CC1CCN(c2c(F)cc(-n3ncc4ccc(OC5CCC5)cc43)cc2F)C1 (stereo not drawn) [Example 494, 2-[1-[4-[6-(cyclobutoxy)indazol-1-yl]-2,6-difluoro-phenyl]pyrrolidin-3-yl]acetic acid] | 200 to 2000 nM
CC(C)COc1cncc(-c2cc(F)c(N3CCC(CC(=O)O)C3)c(F)c2)n1 (stereo not drawn) [Example 496, 2-{1-[2,6-difluoro-4-(6-isobutoxy-pyrazin-2-yl)phenyl]pyrrolidin-3-yl}acetic acid] | 200 to 2000 nM
O=C(O)CC1CCN(c2c(F)cc(-c3cncc(OC4CCCC4)n3)cc2F)C1 (stereo not drawn) [Example 497, 2-{1-[2,6-difluoro-4-(6-cyclopentoxy-pyrazin-2-yl)phenyl]pyrrolidin-3-yl}acetic acid] | 200 to 2000 nM
CCCCOc1cncc(-c2cc(F)c(N3CCC(CC(=O)O)C3)c(F)c2)n1 (stereo not drawn) [Example 498, 2-{1-[2,6-difluoro-4-(6-butoxy-pyrazin-2-yl)phenyl]pyrrolidin-3-yl}acetic acid] | < 200 nM
CC(C)COc1ccnc(-c2cc(F)c(N3CCC(CC(=O)O)C3)c(F)c2)n1 (stereo not drawn) [Example 502, 2-{1-[2,6-difluoro-4-(4-isobutoxy-pyrimidin-2-yl)phenyl]pyrrolidin-3-yl}acetic acid] | 200 to 2000 nM
O=C(O)CCC1CCc2cc(-c3cncc(OC4CCC4)n3)ccc2S1 (stereo not drawn) [Example 507, 3-[6-(6-cyclobutoxy-pyrazin-2-yl)-thiochroman-2-yl]-propionic acid] | 200 to 2000 nM
O=C(O)CCCOc1c(F)cc(-c2cc(F)cc(OC3CCC3)c2)cc1F [Example 528, 4-(5′-cyclobutoxy-3,5,3′-trifluoro-biphenyl-4-yloxy)-butyric acid] | < 200 nM
CN(CCCC(=O)O)c1c(F)cc(-c2ccc(Cl)c(OC3CCC3)n2)cc1F [Example 531, 4-{[4-(5-chloro-6-cyclobutoxy-pyridin-2-yl)-2,6-difluoro-phenyl]-methyl-amino}-butyric acid] | 200 to 2000 nM

From US11261186B2, “Biaryl derivative as GPR120 agonist” (LG CHEM, LTD., priority 2014, dated 2022)
